Measured values as given in patent US8003783B2, “17B-hydroxysteroid dehydrogenase inhibitors” (Sterix Limited, priority 2004, dated 2011).
Where two headings read alike, the source gives them in different places.

Tests used:
17β-HSD1 = biological target: T1, 17β-HSD1 (Homo sapiens, UniProt P14061); test: 17β-HSD Type I activity in T-47D cells (E1→E2); assay type: cell-based; conditions: T-47D cells, E1→E2; for inhibition at 10 µM: T47D; for IC50: read-out: IC50 (17β-HSD1)
T1 construct: was measured in intact cell monolayers of T47D and MDA-MB-231 breast cancer cells respectively; endogenous in cells; host or cells: T-47D human breast cancer cells
T1 sequence (P14061 1-328): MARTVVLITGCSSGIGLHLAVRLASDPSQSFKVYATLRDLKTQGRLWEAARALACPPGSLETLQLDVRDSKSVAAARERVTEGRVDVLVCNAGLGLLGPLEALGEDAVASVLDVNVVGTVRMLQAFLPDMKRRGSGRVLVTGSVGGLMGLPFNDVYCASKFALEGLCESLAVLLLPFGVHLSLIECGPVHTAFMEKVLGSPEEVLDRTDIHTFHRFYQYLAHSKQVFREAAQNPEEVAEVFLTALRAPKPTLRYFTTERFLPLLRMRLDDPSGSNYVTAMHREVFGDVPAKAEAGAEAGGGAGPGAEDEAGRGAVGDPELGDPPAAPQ

17β-HSD2 = biological target: T2, 17β-HSD2 (Homo sapiens, UniProt P37059); test: 17β-HSD Type II activity in MDA-MB-231 cells (E2→E1); assay type: cell-based
T2 construct: was measured in intact cell monolayers of T47D and MDA-MB-231 breast cancer cells respectively; endogenous in cells; host or cells: MDA-MB-231 human breast cancer cells
T2 sequence (P37059 1-387): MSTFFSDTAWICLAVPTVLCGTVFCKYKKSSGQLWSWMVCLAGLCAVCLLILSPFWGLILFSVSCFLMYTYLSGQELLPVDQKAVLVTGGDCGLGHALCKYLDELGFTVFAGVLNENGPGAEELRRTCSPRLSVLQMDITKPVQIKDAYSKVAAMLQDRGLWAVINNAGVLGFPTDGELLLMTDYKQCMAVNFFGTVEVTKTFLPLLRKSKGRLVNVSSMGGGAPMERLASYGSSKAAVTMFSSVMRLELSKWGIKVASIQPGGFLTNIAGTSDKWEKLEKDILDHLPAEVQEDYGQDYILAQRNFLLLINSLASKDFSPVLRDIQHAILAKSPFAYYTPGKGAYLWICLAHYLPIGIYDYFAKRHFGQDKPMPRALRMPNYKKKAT

[1] = 10 μM, read-out: % inhibition of 17β-HSD1 @ 10 μM
[2] = 10 μM, MDA-MB-231 cells, E2→E1, read-out: % inhibition of 17β-HSD2 @ 10 μM
[3] = read-out: % inhibition of 17β-HSD1 @ 10 μM, 10 μM
[4] = MDA-MB-231, read-out: % inhibition of 17β-HSD2 @ 10 μM

Row | Compound | inhibition at 10 µM (17β-HSD1; [1]) [%] | inhibition at 10 µM (17β-HSD2; [2]) [%] | other results
1 | CCN(CC)C(=O)CC1CC2C3CCc4cc(O)ccc4C3CC[C@]2(C)C1=O (stereo partly drawn) [compound 742] | 82 | 2 | 
2 | CCC(O)C1CC2C3CCc4cc(O)ccc4C3CC[C@]2(C)C1=O (stereo partly drawn) [compound 665] | 80 | -18 | 
3 | CCN(C)C(=O)CC1CC2C3CCc4cc(O)ccc4C3CC[C@]2(C)[C@H]1O (stereo partly drawn) [compound 771] | 78 | 16 | 
4 | C[C@]12CCC3c4ccc(O)cc4CCC3C1CC(Cc1ccncc1)[C@@H]2O (stereo partly drawn) [compound 543, 13-Methyl-16-pyridin-4-ylmethyl-7,8,9,11,12,13,14,15,16,17-decahydro-6H-cyclopenta[a]phenanthrene-3,17-diol] | 84 | 37 | 
5 | C[C@]12CCC3c4ccc(O)cc4CCC3C1C/C(=C/O)C2=O (stereo partly drawn) [compound 486] | 97 | 15 | IC50 (17β-HSD1): 110 nM
6 | Cn1c2c(c(=O)n1C)CC1C3CCc4cc(O)ccc4C3CC[C@]21C (stereo partly drawn) [compound 942] | 32 | 15 | 
7 | C[C@]12CCC3c4ccc(O)cc4C(=O)CC3C1CCC2=O (stereo partly drawn) [compound 416] | 98 | 8 | IC50 (17β-HSD1): 340 nM
8 | COc1cc(/C=C2\CC3C4CCc5cc(O)ccc5C4CC[C@]3(C)C2=O)cc(OC)c1OC (stereo partly drawn) [compound 328] | 24 | -12 | 
9 | C[C@]12CCC3c4ccc(O)cc4CCC3C1C/C(=C\c1ccncc1)C2=O (stereo partly drawn) [compound 321] | 34 | 25 | 
10 | CCOC(=O)CC1CC2C3CCc4cc(O)ccc4C3CC[C@]2(C)[C@H]1O (stereo partly drawn) [compound 574] | 67 | 18 | 
11 | COc1cc2c(cc1OS(N)(=O)=O)CCC1C2CC[C@]2(C)C(=O)C(C#N)CC12 (stereo partly drawn) [compound 210] | 95 | 8 | IC50 (17β-HSD1): 2100 nM
12 | CCN(CC)C(=O)CC1CC2C3CCc4cc(O)ccc4C3CC[C@]2(C)[C@H]1O (stereo partly drawn) [compound 772] | 79 | 14 | 
13 | C[C@]12CCC3c4ccc(O)cc4C(=O)CC3C1Cc1c[nH]nc12 (stereo partly drawn) [compound 737, 2-Hydroxy-6a-methyl-5,6,6a,8,10,10a,10b,11-octahydro-4bH-7,8-diazo-pentaleno[2,1-a]phenanthren-12-one] | 96 | -9 | IC50 (17β-HSD1): 460 nM
14 | CN(C)c1ccc(/C=C2\CC3C4CCc5cc(O)ccc5C4CC[C@]3(C)[C@H]2O)cc1 (stereo in doubt) [compound 511, 16-(4-Dimethylamino-benzylidene)-13-methyl-7,8,9,11,12,13,14,15,16,17-decahydro-6H-cyclopenta[a]phenanthrene-3,17-diol] | 72 | 81 | IC50 (17β-HSD2; MDA-MB-231 cells, E2→E1): 5400 nM
15 | C[C@]12CCC3c4ccc(O)cc4CCC3C1Cc1c2n[nH]c1C(=O)NCC1CCCO1 (stereo partly drawn) [compound 892] |  |  | inhibition at 10 µM (17β-HSD1; [3]): 87%; inhibition at 10 µM (17β-HSD2; [4]): -4%
16 | CCNC(=O)CC1CC2C3CCc4cc(O)ccc4C3CC[C@]2(C)[C@H]1O (stereo partly drawn) [compound 774] | 76 | 13 | 
17 | C[C@]12CCC3c4ccc(O)cc4CCC3C1CC(CC(=O)Nc1nccs1)C2=O (stereo partly drawn) [compound 746] | 30 | 16 | 
18 | C[C@]12CCC3c4ccc(O)cc4CCC3C1CC(CC(=O)NCc1ccco1)C2=O (stereo partly drawn) [compound 672] |  |  | inhibition at 10 µM (17β-HSD1; [3]): 85%; inhibition at 10 µM (17β-HSD2; [4]): 3%
19 | CNC(=O)c1[nH]nc2c1CC1C3CCc4cc(O)ccc4C3CC[C@]21C (stereo partly drawn) [compound 893] |  |  | inhibition at 10 µM (17β-HSD1; [3]): 62%; inhibition at 10 µM (17β-HSD2; [4]): 14%
20 | COc1cc2c(cc1O)CCC1C2CC[C@]2(C)C(=O)C(C#N)CC12 (stereo partly drawn) [compound 208] | 35 | 4 | % inhibition of 17β-HSD1 @ 10 μM (17β-HSD1; 10 μM): 31%
21 | COC(=O)Cn1cc2c(n1)[C@@]1(C)CCC3c4ccc(O)cc4CCC3C1C2 (stereo partly drawn) [compound 806] | 95 | 19 | IC50 (17β-HSD1): 920 nM
22 | C[C@H](NC(=O)CC1CC2C3CCc4cc(O)ccc4C3CC[C@]2(C)C1=O)c1ccccc1 (stereo partly drawn) [compound 690] | 83 | 10 | 
